Test results reported in the supplement of paper PMC11061612.

Columns and labels:
[1] = compound: CC(=O)O[C@H]1C(=O)[C@@]2(C)[C@H]([C@H](OC(=O)c3ccccc3)[C@]3(O)C[C@H](OC(=O)[C@H](O)[C@@H](NC(=O)c4ccccc4)c4ccccc4)C(C)=C1C3(C)C)[C@]1(OC(C)=O)CO[C@@H]1C[C@@H]2O [Paclitaxel]; settings: max 3 µM
Procedure, shortened: (§1)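 Cancer cell lines were plated in 1536-well plates in 7.5 μl of DMEM/F12 or RPMI with 10% FBS and kept 24 hours at 37°C and 5% CO2 before 72 hours of dosing, with final DMSO typically 0.2%. CellTiter-Glo 2.0 luminescence measured viability, scaled between blank-well and DMSO-well means. Dose responses were fitted to a two-parameter logistic curve with a non-linear mixed effects model. This fit gives the single-agent IC50.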

[2] = compound: C[C@@H](c1ccc2nccn2c1)n1nnc2ncc(-c3cnn(C)c3)nc21 [Savolitinib]; settings: max 1 µM
Procedure, shortened: as §1

[3] = compound: COc1cc([C@@H]2c3cc4c(cc3[C@@H](O[C@@H]3O[C@@H]5CO[C@@H](C)O[C@H]5[C@H](O)[C@H]3O)[C@H]3COC(=O)[C@H]23)OCO4)cc(OC)c1O [Etoposide]; settings: max 10 µM
Procedure, shortened: as §1

[4] = compound: Cc1cc2ncnn2cc1Nc1ncc2c(n1)n(C1CCOCC1)c(=O)n2C [AZD7648]; settings: max 10 µM
Procedure, shortened: as §1

[5] = compound: CC(C)n1c(=O)n(C)c2cnc3cc(F)c(-c4ccc(OCCCN5CCCCC5)nc4)cc3c21 [AZD1390]; settings: max 0.3 µM
Procedure, shortened: as §1

[6] = compound: N#Cc1cnc(Nc2cc(NC[C@H]3CNCCO3)c(C(F)(F)F)cn2)cn1 [SRA737]; settings: max 10 µM
Procedure, shortened: as §1

[7] = compound: COc1nnc2ccc(N3CCC(c4ccc(OCCN5CCN(C)C(=O)[C@H]5C)cc4)CC3)nn12 [AZD5153]; settings: max 1 µM
Procedure, shortened: as §1

[8] = compound: CN(CC[C@H](CSC1=CC=CC=C1)NC2=C(C=C(C=C2)S(=O)(=O)NC(=O)C3=CC=C(C=C3)N4CCC(CC4)[C@H](C5=CC=CC=C5C6=CC=C(C=C6)Cl)O)S(=O)(=O)C(F)(F)F)CCO [AZD4320]; settings: max 1 µM
Procedure, shortened: as §1

[9] = compound: CC1(C)CCC(CN2CCN(c3ccc(C(=O)NS(=O)(=O)c4ccc(NCC5CCOCC5)c([N+](=O)[O-])c4)c(Oc4cnc5[nH]ccc5c4)c3)CC2)=C(c2ccc(Cl)cc2)C1 [Venetoclax]; settings: max 1 µM
Procedure, shortened: as §1

[10] = compound: COc1cc(Nc2ncc3c(n2)-c2ccc(Cl)cc2C(c2c(F)cccc2OC)=NC3)ccc1C(=O)O [Alisertib]; settings: max 10 µM
Procedure, shortened: as §1

[11] = compound: CC(=O)Nc1cccc(-n2c(=O)n(C3CC3)c(=O)c3c(Nc4ccc(I)cc4F)n(C)c(=O)c(C)c32)c1 [Trametinib]; settings: max 1 µM
Procedure, shortened: as §1

[12] = compound: O=C(c1cc(Cc2n[nH]c(=O)c3ccccc23)ccc1F)N1CCN(C(=O)C2CC2)CC1 [Olaparib]; settings: max 10 µM
Procedure, shortened: as §1

[13] = compound: CCc1c2c(nc3ccc(O)cc13)-c1cc3c(c(=O)n1C2)COC(=O)[C@]3(O)CC [SN-38]; settings: max 0.3 µM
Procedure, shortened: as §1

[14] = compound: O=C(Nc1ccc2[nH]nc(-c3ccncc3)c2c1)[C@@H]1CCN(CC(=O)N2CCN(c3ccc(-c4ncccn4)cc3)CC2)C1; settings: max 5 µM
Procedure, shortened: as §1

[15] = compound: COc1cccc(OCCCN)c1-c1cc(Nc2cnc(C#N)cn2)n[nH]1 [Prexasertib]; settings: max 1 µM
Procedure, shortened: as §1

[16] = compound: C[C@@H](Nc1cc(F)cc(F)c1)c1cc(C(=O)N(C)C)cc2c(=O)cc(N3CCOCC3)oc12 [AZD8186]; settings: max 10 µM
Procedure, shortened: as §1

[17] = compound: CC(=O)c1c(C)c2cnc(Nc3ccc(N4CCNCC4)cn3)nc2n(C2CCCC2)c1=O [Palbociclib]; settings: max 10 µM
Procedure, shortened: as §1

[18] = compound: C1CN(CCC1(C(=O)N[C@@H](CCO)C2=CC=C(C=C2)Cl)N)C3=NC=NC4=C3C=CN4 [AZD5363]; settings: max 10 µM
Procedure, shortened: as §1

[19] = compound: CN(C)CCCOc1ccc(-c2ccc3ncc4c(c3c2)n(C2CCOCC2)c(=O)n4C)cn1 [AZD0156]; settings: max 3 µM
Procedure, shortened: as §1

[20] = compound: CC1=CN2[C@@H](C1)C=NC3=CC(=C(C=C3C2=O)OC)OCCCCCOC4=C(C=C5C(=C4)N=C[C@@H]6CC(=CN6C5=O)C)OC [SG3199]; settings: max 0.001 µM
Procedure, shortened: as §1

[21] = compound: CCN(CCO)CCCOc1ccc2c(Nc3cc(CC(=O)Nc4cccc(F)c4)[nH]n3)ncnc2c1 [AZD2811]; settings: max 1 µM
Procedure, shortened: as §1

[22] = compound: CS(=O)(=O)CCNCc1ccc(-c2ccc3ncnc(Nc4ccc(OCc5cccc(F)c5)c(Cl)c4)c3c2)o1 [Lapatinib]; settings: max 10 µM
Procedure, shortened: as §1

[23] = compound: Nc1ccn([C@@H]2O[C@H](CO)[C@@H](O)C2(F)F)c(=O)n1 [Gemcitabine]; settings: max 0.3 µM
Procedure, shortened: as §1

[24] = compound: Cn1cnc2c(F)c(Nc3ccc(Br)cc3Cl)c(C(=O)NOCCO)cc21 [Selumetinib]; settings: max 10 µM
Procedure, shortened: as §1

[25] = compound: C[C@@H]1COCCN1C2=NC(=NC(=C2)C3(CC3)[S@](=N)(=O)C)C4=C5C=CNC5=NC=C4 [AZD6738]; settings: max 10 µM
Procedure, shortened: as §1

[26] = compound: C[C@@H](Oc1cc(-c2cnn(C3CCNCC3)c2)cnc1N)c1c(Cl)ccc(F)c1Cl [Crizotinib]; settings: max 10 µM
Procedure, shortened: as §1

[27] = compound: CC1=C(C(=CC=C1)Cl)NC(=O)C2=CN=C(S2)NC3=CC(=NC(=N3)C)N4CCN(CC4)CCO [Dasatinib]; settings: max 2 µM
Procedure, shortened: as §1

[28] = compound: Cc1c2c(nn1C)CSCc1cc(n(C)n1)CSc1cc(c3ccccc3c1)OCCCc1c(C(=O)O)n(C)c3c-2c(Cl)ccc13 [AZD5991]; settings: max 1 µM
Procedure, shortened: as §1

[29] = compound: COc1cccc2c1C(=O)c1c(O)c3c(c(O)c1C2=O)C[C@@](O)(C(=O)CO)C[C@@H]3O[C@H]1C[C@H](N)[C@H](O)[C@H](C)O1 [Doxorubicin]; settings: max 1 µM
Procedure, shortened: as §1

[30] = compound: C1CC(C1)(C(=O)[O-])C(=O)[O-].N.N.[Pt+2] [Carboplatin]; settings: max 10 µM
Procedure, shortened: as §1

[31] = compound: Cc1nc(-c2cn3c(n2)-c2ccc(-c4cnn(C(C)(C)C(N)=O)c4)cc2OCC3)n(C(C)C)n1 [Taselisib]; settings: max 10 µM
Procedure, shortened: as §1

[32] = compound: NC1(c2ccc(-c3nc4ccn5c(=O)[nH]nc5c4cc3-c3ccccc3)cc2)CCC1 [MK-2206]; settings: max 10 µM
Procedure, shortened: as §1

[33] = compound: COc1cc2ncnc(Nc3ccc(F)c(Cl)c3)c2cc1OCCCN1CCOCC1 [Gefitinib]; settings: max 10 µM
Procedure, shortened: as §1

[34] = compound: O=c1[nH]cc(F)c(=O)[nH]1 [5-Fluorouracil]; settings: max 20 µM
Procedure, shortened: as §1

[35] = compound: C=CCn1c(=O)c2cnc(Nc3ccc(N4CCN(C)CC4)cc3)nc2n1-c1cccc(C(C)(C)O)n1 [AZD1775]; settings: max 3 µM
Procedure, shortened: as §1

Cell Line	IC50, cell viability 72 h [1] [nM]	IC50, cell viability 72 h [2] [nM]	IC50, cell viability 72 h [3] [nM]	IC50, cell viability 72 h [4] [nM]	IC50, cell viability 72 h [5] [nM]	IC50, cell viability 72 h [6] [nM]	IC50, cell viability 72 h [7] [nM]	IC50, cell viability 72 h [8] [nM]	IC50, cell viability 72 h [9] [nM]	IC50, cell viability 72 h [10] [nM]	IC50, cell viability 72 h [11] [nM]	IC50, cell viability 72 h [12] [nM]	IC50, cell viability 72 h [13] [nM]	IC50, cell viability 72 h [14] [nM]	IC50, cell viability 72 h [15] [nM]	IC50, cell viability 72 h [16] [nM]	IC50, cell viability 72 h [17] [nM]	IC50, cell viability 72 h [18] [nM]	IC50, cell viability 72 h [19] [nM]	IC50, cell viability 72 h [20] [nM]	IC50, cell viability 72 h [21] [nM]	IC50, cell viability 72 h [22] [nM]	IC50, cell viability 72 h [23] [nM]	IC50, cell viability 72 h [24] [nM]	IC50, cell viability 72 h [25] [nM]	IC50, cell viability 72 h [26] [nM]	IC50, cell viability 72 h [27] [nM]	IC50, cell viability 72 h [28] [nM]	IC50, cell viability 72 h [29] [nM]	IC50, cell viability 72 h [30] [nM]	IC50, cell viability 72 h [31] [nM]	IC50, cell viability 72 h [32] [nM]	IC50, cell viability 72 h [33] [nM]	IC50, cell viability 72 h [34] [nM]	IC50, cell viability 72 h [35] [nM]
MDA-MB-436 (Breast Carcinoma)	> 3000	> 1000	> 10000	> 10000	> 300	> 10000	> 1000	> 1000	> 1000	> 10000	> 1000	> 10000	207	> 5000	> 1000	> 10000	> 10000	> 10000	> 3000	> 1	> 1000	> 10000	> 300	> 10000	> 10000	> 10000	> 2000	> 1000	> 1000	> 10000	> 10000	> 10000	> 10000	> 20000	> 3000
MHH-ES-1 (Ewing's Sarcoma)	5.4	> 1000	2700	> 10000	> 300	> 10000	614	> 1000	> 1000	319	> 1000	4150	3.05	> 5000	212	> 10000	> 10000	> 10000	> 3000	> 1	215	> 10000	15.9	> 10000	> 10000	3990	> 2000	> 1000	425	> 10000	5810	> 10000	> 10000	> 20000	649
NCI-H441 (Lung Adenocarcinoma)	2240	> 1000	> 10000	> 10000	> 300	> 10000	> 1000	> 1000	> 1000	> 10000	> 1000	> 10000	112	> 5000	666	> 10000	> 10000	> 10000	> 3000	> 1	> 1000	> 10000	299	> 10000	> 10000	> 10000	> 2000	> 1000	> 1000	> 10000	> 10000	> 10000	> 10000	> 20000	> 3000
